Assay results published in ChEMBL document CHEMBL6182838, “Structure-activity relationship expansion and microsomal stability assessment of the 2-morpholinobenzoic acid scaffold as antiproliferative phosphatidylcholine-specific phospholipase C inhibitors” (RSC Med Chem, 2025).

Legend:
HCT-116 = assay: Antiproliferative activity against human HCT-116 cells assessed as cell proliferation at 10 uM measured after 3 days incubation followed by incubated 5 hrs with [3H]-thymidine by 3H-thymidine incorporation assay relative to control; type: functional; conditions: HCT-116, 72 h, time 3 day, read-out: Activity
Bacillus cereus = assay: Inhibition of Bacillus cereus phosphatidylcholine specific phospholipase C (PC-PLC BC) assessed as enzyme activity by measuring formation of resorufin fluorophore 10 uM by Amplex-Red based fluorescence assay relative to control; set-up: scale not given: the % may be the effect or the level left
MDA-MB-231 = assay: Antiproliferative activity against human MDA-MB-231 cells assessed as cell proliferation at 10 uM measured after 3 days incubation followed by incubated 5 hrs with [3H]-thymidine by 3H-thymidine incorporation assay relative to control; type: functional; conditions: MDA-MB-231, 72 h, time 3 day, read-out: Activity

O=C(O)c1ccc(NCc2cccc(Br)c2)cc1N1CCOCC1
growth at 10 µM (HCT-116): 101% | Activity (Bacillus cereus): 95.8% | growth at 10 µM (MDA-MB-231): 104%

COC(=O)c1ccc(NCc2cccc(Br)c2)cc1N1CCOCC1
growth at 10 µM (HCT-116): 34.7% | Activity (Bacillus cereus): 97.4% | growth at 10 µM (MDA-MB-231): 62.9%

O=C(O)c1cc(NCc2ccccc2Br)ccc1C1CCOCC1
growth at 10 µM (HCT-116): 99.5% | Activity (Bacillus cereus): 116% | growth at 10 µM (MDA-MB-231): 108%

COC(=O)c1ccc(NCc2cccc(F)c2)cc1N1CCOCC1
growth at 10 µM (HCT-116): 71% | Activity (Bacillus cereus): 78.9% | growth at 10 µM (MDA-MB-231): 85.9%

O=C(NO)c1cc(NCc2ccccc2Br)ccc1N1CCOCC1
growth at 10 µM (MDA-MB-231): 7.4%

O=C(O)c1ccc(NCc2cccc(Cl)c2)cc1N1CCOCC1
growth at 10 µM (HCT-116): 88.6% | Activity (Bacillus cereus): 33.1% | growth at 10 µM (MDA-MB-231): 87.2%

O=C(O)c1cc(NCc2cccc(Cl)c2)ccc1N1CCOCC1
Activity (Bacillus cereus): 10.7%

O=C(NO)c1cc(NCc2cccc(Cl)c2)ccc1N1CCOCC1
Activity (Bacillus cereus): 30.5%

COC(=O)c1ccc(NCc2ccc(OC)cc2)cc1N1CCOCC1
growth at 10 µM (HCT-116): 70.4% | Activity (Bacillus cereus): 104% | growth at 10 µM (MDA-MB-231): 87.5%

COC(=O)c1ccc(NCc2cccc(Cl)c2)cc1N1CCOCC1
growth at 10 µM (HCT-116): 44.3% | Activity (Bacillus cereus): 55.8% | growth at 10 µM (MDA-MB-231): 68.9%

COC(=O)c1cc(NCc2ccccc2Br)ccc1C1CCOCC1
growth at 10 µM (HCT-116): 20.3% | Activity (Bacillus cereus): 112% | growth at 10 µM (MDA-MB-231): 16.4%

O=C(NO)c1ccc(NCc2ccccc2F)cc1N1CCOCC1
growth at 10 µM (HCT-116): 87.6% | Activity (Bacillus cereus): 50.9% | growth at 10 µM (MDA-MB-231): 79.6%

O=C(NO)c1ccc(NCc2ccccc2)cc1N1CCOCC1
growth at 10 µM (HCT-116): 89.7% | Activity (Bacillus cereus): 43.4% | growth at 10 µM (MDA-MB-231): 85.7%

COC(=O)c1cc(N(C)Cc2ccccc2Cl)ccc1N1CCOCC1
growth at 10 µM (HCT-116): 54.5% | growth at 10 µM (MDA-MB-231): 83.8%

COC(=O)c1cc(NCc2ccc(F)cc2)ccc1C1CCOCC1
growth at 10 µM (HCT-116): 25.3% | Activity (Bacillus cereus): 52% | growth at 10 µM (MDA-MB-231): 36%

O=C(O)c1cc(NCc2cccc(F)c2)ccc1C1CCOCC1
growth at 10 µM (HCT-116): 103% | Activity (Bacillus cereus): 36.2% | growth at 10 µM (MDA-MB-231): 104%

COC(=O)c1ccc(NCc2ccc(Br)cc2)cc1N1CCOCC1
growth at 10 µM (HCT-116): 52.5% | Activity (Bacillus cereus): 103% | growth at 10 µM (MDA-MB-231): 68.9%

COc1cccc(CNc2ccc(C(=O)O)c(N3CCOCC3)c2)c1
growth at 10 µM (HCT-116): 103% | Activity (Bacillus cereus): 106% | growth at 10 µM (MDA-MB-231): 101%

COc1ccc(CNc2ccc(C(=O)O)c(N3CCOCC3)c2)cc1
growth at 10 µM (HCT-116): 105% | Activity (Bacillus cereus): 106% | growth at 10 µM (MDA-MB-231): 110%

O=C(O)c1ccc(NCc2ccccc2)cc1N1CCOCC1
growth at 10 µM (HCT-116): 92.4% | Activity (Bacillus cereus): 96.6% | growth at 10 µM (MDA-MB-231): 96.8%

O=C(NO)c1ccc(NCc2ccc(Br)cc2)cc1N1CCOCC1
growth at 10 µM (HCT-116): 18.1% | Activity (Bacillus cereus): 45.6% | growth at 10 µM (MDA-MB-231): 21.8%

O=C(NO)c1ccc(NCc2ccc(Cl)cc2)cc1N1CCOCC1
growth at 10 µM (HCT-116): 57.4% | Activity (Bacillus cereus): 54.4% | growth at 10 µM (MDA-MB-231): 45.5%

O=C(NO)c1cc(NCc2cccc(Br)c2)ccc1C1CCOCC1
growth at 10 µM (HCT-116): 78.8% | Activity (Bacillus cereus): 75.2% | growth at 10 µM (MDA-MB-231): 77.6%

COC(=O)c1cc(NCc2ccccc2Cl)ccc1C1CCOCC1
growth at 10 µM (HCT-116): 25.9% | Activity (Bacillus cereus): 101% | growth at 10 µM (MDA-MB-231): 25.9%

O=C(O)c1ccc(NCc2ccc(F)cc2)cc1N1CCOCC1
growth at 10 µM (HCT-116): 91.6% | Activity (Bacillus cereus): 62.4% | growth at 10 µM (MDA-MB-231): 94.8%

COC(=O)c1ccc(NCc2cccc(OC)c2)cc1N1CCOCC1
growth at 10 µM (HCT-116): 48.5% | Activity (Bacillus cereus): 109% | growth at 10 µM (MDA-MB-231): 80.6%

COC(=O)c1cc(NCc2ccccc2OC)ccc1C1CCOCC1
growth at 10 µM (HCT-116): 31.2% | Activity (Bacillus cereus): 94.7% | growth at 10 µM (MDA-MB-231): 22%

O=C(NO)c1ccc(NCc2ccccc2Cl)cc1N1CCOCC1
growth at 10 µM (HCT-116): 68.4% | Activity (Bacillus cereus): 54.1% | growth at 10 µM (MDA-MB-231): 41.8%

O=C(NO)c1ccc(NCc2cccc(Cl)c2)cc1N1CCOCC1
growth at 10 µM (HCT-116): 48.6% | Activity (Bacillus cereus): 47.5% | growth at 10 µM (MDA-MB-231): 39.6%

O=C(O)c1cc(NCc2ccc(Br)cc2)ccc1C1CCOCC1
growth at 10 µM (HCT-116): 104% | Activity (Bacillus cereus): 105% | growth at 10 µM (MDA-MB-231): 102%

O=C(NO)c1cc(NCc2ccccc2)ccc1C1CCOCC1
growth at 10 µM (HCT-116): 80.2% | Activity (Bacillus cereus): 80.7% | growth at 10 µM (MDA-MB-231): 90%

O=C(O)c1cc(NCc2ccccc2F)ccc1C1CCOCC1
growth at 10 µM (HCT-116): 104% | Activity (Bacillus cereus): 43.4% | growth at 10 µM (MDA-MB-231): 113%

O=C(O)c1ccc(NCc2ccc(Br)cc2)cc1N1CCOCC1
growth at 10 µM (HCT-116): 101% | Activity (Bacillus cereus): 99.1% | growth at 10 µM (MDA-MB-231): 99.7%

O=C(NO)c1cc(NCc2ccc(F)cc2)ccc1C1CCOCC1
growth at 10 µM (HCT-116): 91.6% | Activity (Bacillus cereus): 93.7% | growth at 10 µM (MDA-MB-231): 86.6%

O=C(NO)c1cc(NCc2cccc(Cl)c2)ccc1C1CCOCC1
growth at 10 µM (HCT-116): 83% | Activity (Bacillus cereus): 79.7% | growth at 10 µM (MDA-MB-231): 80.1%

COC(=O)c1ccc(NCc2ccccc2Br)cc1N1CCOCC1
growth at 10 µM (HCT-116): 29.5% | Activity (Bacillus cereus): 36.3% | growth at 10 µM (MDA-MB-231): 51.3%

O=C(O)c1cc(NCc2cccc(Cl)c2)ccc1C1CCOCC1
growth at 10 µM (HCT-116): 103% | Activity (Bacillus cereus): 109% | growth at 10 µM (MDA-MB-231): 114%

COC(=O)c1cc(NCc2cccc(Br)c2)ccc1C1CCOCC1
growth at 10 µM (HCT-116): 40.1% | Activity (Bacillus cereus): 109% | growth at 10 µM (MDA-MB-231): 58.8%

COc1cccc(CNc2ccc(C3CCOCC3)c(C(=O)O)c2)c1
growth at 10 µM (HCT-116): 101% | Activity (Bacillus cereus): 106% | growth at 10 µM (MDA-MB-231): 104%

COc1cccc(CNc2ccc(C(=O)NO)c(N3CCOCC3)c2)c1
growth at 10 µM (HCT-116): 77.4% | Activity (Bacillus cereus): 51.4% | growth at 10 µM (MDA-MB-231): 65.7%

COC(=O)c1cc(NCc2ccc(Cl)cc2)ccc1C1CCOCC1
growth at 10 µM (HCT-116): 56.7% | Activity (Bacillus cereus): 112% | growth at 10 µM (MDA-MB-231): 83.8%

O=C(O)c1ccc(NCc2ccccc2Br)cc1N1CCOCC1
growth at 10 µM (HCT-116): 94.4% | Activity (Bacillus cereus): 95.2% | growth at 10 µM (MDA-MB-231): 90%

COC(=O)c1cc(NCc2ccccc2F)ccc1C1CCOCC1
growth at 10 µM (HCT-116): 9.5% | Activity (Bacillus cereus): 62.3% | growth at 10 µM (MDA-MB-231): 17.6%

COC(=O)c1ccc(NCc2ccc(F)cc2)cc1N1CCOCC1
growth at 10 µM (HCT-116): 65% | Activity (Bacillus cereus): 80.3% | growth at 10 µM (MDA-MB-231): 81.9%

O=C(O)c1cc(NCc2cccc(Br)c2)ccc1C1CCOCC1
growth at 10 µM (HCT-116): 104% | Activity (Bacillus cereus): 113% | growth at 10 µM (MDA-MB-231): 107%

COc1ccccc1CNc1ccc(C(=O)O)c(N2CCOCC2)c1
growth at 10 µM (HCT-116): 102% | Activity (Bacillus cereus): 105% | growth at 10 µM (MDA-MB-231): 92.6%

COC(=O)c1cc(NCc2ccccc2)ccc1C1CCOCC1
growth at 10 µM (HCT-116): 19.8% | Activity (Bacillus cereus): 77.2% | growth at 10 µM (MDA-MB-231): 29.3%

COc1cccc(CNc2ccc(C3CCOCC3)c(C(=O)NO)c2)c1
growth at 10 µM (HCT-116): 94.4% | Activity (Bacillus cereus): 80.6% | growth at 10 µM (MDA-MB-231): 89.2%

COc1ccc(CNc2ccc(C3CCOCC3)c(C(=O)NO)c2)cc1
growth at 10 µM (HCT-116): 88.6% | Activity (Bacillus cereus): 80.4% | growth at 10 µM (MDA-MB-231): 82%

O=C(O)c1ccc(NCc2ccccc2F)cc1N1CCOCC1
growth at 10 µM (HCT-116): 95.2% | Activity (Bacillus cereus): 82.2% | growth at 10 µM (MDA-MB-231): 96.4%

O=C(NO)c1cc(NCc2cccc(F)c2)ccc1C1CCOCC1
growth at 10 µM (HCT-116): 94.4% | Activity (Bacillus cereus): 88.2% | growth at 10 µM (MDA-MB-231): 84.4%

COC(=O)c1cc(NCc2ccc(Br)cc2)ccc1C1CCOCC1
growth at 10 µM (HCT-116): 61.2% | Activity (Bacillus cereus): 110% | growth at 10 µM (MDA-MB-231): 79.6%

COC(=O)c1cc(NCc2cccc(Cl)c2)ccc1C1CCOCC1
growth at 10 µM (HCT-116): 37.2% | Activity (Bacillus cereus): 104% | growth at 10 µM (MDA-MB-231): 48.3%

COc1ccc(CNc2ccc(C3CCOCC3)c(C(=O)O)c2)cc1
growth at 10 µM (HCT-116): 93.6% | Activity (Bacillus cereus): 104% | growth at 10 µM (MDA-MB-231): 102%

O=C(O)c1cc(NCc2ccc(F)cc2)ccc1C1CCOCC1
growth at 10 µM (HCT-116): 104% | Activity (Bacillus cereus): 102% | growth at 10 µM (MDA-MB-231): 107%
